We go through 31 compounds from US7932262B2 (Novartis AG, priority 2006, dated 2011).

In one assay the target is T1, PDK1 kinase (Homo sapiens, UniProt O15530).
T1 sequence (O15530 1-556): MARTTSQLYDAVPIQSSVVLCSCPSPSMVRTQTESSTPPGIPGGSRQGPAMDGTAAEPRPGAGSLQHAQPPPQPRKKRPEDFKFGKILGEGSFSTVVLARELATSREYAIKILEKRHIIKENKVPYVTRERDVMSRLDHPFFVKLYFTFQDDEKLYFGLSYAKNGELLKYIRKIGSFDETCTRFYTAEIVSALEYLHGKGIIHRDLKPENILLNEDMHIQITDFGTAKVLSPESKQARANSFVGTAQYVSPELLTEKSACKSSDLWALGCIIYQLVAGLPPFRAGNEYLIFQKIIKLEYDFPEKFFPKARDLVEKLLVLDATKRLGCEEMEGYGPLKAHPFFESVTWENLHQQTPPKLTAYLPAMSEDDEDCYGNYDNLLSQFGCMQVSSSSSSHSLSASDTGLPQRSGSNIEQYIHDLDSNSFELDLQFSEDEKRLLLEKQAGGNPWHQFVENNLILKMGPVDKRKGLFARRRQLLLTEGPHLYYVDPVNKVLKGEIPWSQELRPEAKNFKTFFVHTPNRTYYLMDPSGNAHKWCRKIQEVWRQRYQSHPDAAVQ
Briefly: PDK1 Kinase Alpha Screen Assay. The assay is classed as biochemical. As to conditions: PDK1 Kinase Alpha Screen Assay; read-out: PDK1 IC50. In a few lines:
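Detection used AlphaScreen: streptavidin donor and protein A acceptor beads (25 μg/ml each) bridged by a phospho-(Ser/Thr) PKA substrate antibody binding phosphorylated peptide. Reaction: biotin-PDK1-4 peptide (50 nM), ATP (10 uM), PDK1 in pH 7.5 Tris/MgCl2/DTT buffer, 3-18 hours, EDTA-stopped.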

A further assay concerns PC-3 cells. Briefly: Cell Proliferation Assay (Cell Titer Glo), PC-3 cell line. Type of assay: cell-based. To be noted: PC3, read-out: CPEC50 PC3. In a few lines:
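Cell Titer Glo luminescence, read after fresh medium replaced the dosing medium, gave viability of PC-3 cells plated at 1000 cells/well. Compounds, 1:3 serially diluted in DMSO at 500× and then in medium, were added after 3-5 h adhesion and incubated 3 days at 37° C.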

Setting [1] is: Homo sapiens, PC-3, Cell Proliferation Assay.

Structures are written as SMILES. Like-named read-outs stand apart in the source and are kept apart here.

Regarding `CC(C)NC(=O)c1ccc(Nc2ncc3cccc(OC4CCNCC4)c3n2)cc1` [Compound 491, N-isopropyl-4-(8-(piperidin-4-yloxy)quinazolin-2-ylamino)benzamide], the half-inhibitory concentration (IC50) at PDK1 kinase is below 5 µM. Besides, in the assay on PC-3 cells (setting [1]), the EC50 is below 5 µM.

In the case of `COCCNC(=O)c1ccc(Nc2ncc3cccc(OC4CCNCC4)c3n2)cc1` [Compound 492], the IC50 on PDK1 kinase was below 5 µM. In addition, in the assay with PC-3 cells (setting [1]), the EC50 was below 5 µM.

Consider `CS(=O)(=O)CCNC(=O)c1ccc(Nc2ncc3cccc(OC4CCNCC4)c3n2)cc1F` [Compound 493, 2-fluoro-N-(2-(methylsulfonyl)ethyl)-4-(8-(piperidin-4-yloxy)quinazolin-2-ylamino)benzamide], for which the IC50 at PDK1 kinase is below 5 µM. Further, the EC50 with PC-3 cells (setting [1]) was below 5 µM.

As to `O=C1CN(C(=O)c2ccc(Nc3ncc4cccc(OC5CCNCC5)c4n3)cc2F)CCN1` [Compound 494, 4-(2-fluoro-4-(8-(piperidin-4-yloxy)quinazolin-2-ylamino)benzoyl)piperazin-2-one], at PDK1 kinase, the half-inhibitory concentration (IC50) was below 5 µM. Also, the EC50 in the assay with PC-3 cells (setting [1]) lay in the range of 5 to 10 µM.

As for `O=C(NC1CCCC1)c1ccc(Nc2ncc3cccc(OC4CCNCC4)c3n2)cc1F` [Compound 495, N-cyclopentyl-2-fluoro-4-(8-(piperidin-4-yloxy)quinazolin-2-ylamino)benzamide], the IC50 at PDK1 kinase is below 5 µM. Besides, in the assay with PC-3 cells (setting [1]), the EC50 was below 5 µM.

In the case of `CC(=O)NCCNC(=O)c1ccc(Nc2ncc3cccc(OC4CCNCC4)c3n2)cc1F` [Compound 496, N-(2-acetamidoethyl)-2-fluoro-4-(8-(piperidin-4-yloxy)quinazolin-2-ylamino)benzamide], the IC50 at PDK1 kinase is below 5 µM. The EC50 with PC-3 cells (setting [1]) is 5 to 10 µM.

Turning to `O=C(NCCN1CCCC1)c1ccc(Nc2ncc3cccc(OC4CCNCC4)c3n2)cc1F` [Compound 497, 2-fluoro-4-(8-(piperidin-4-yloxy)quinazolin-2-ylamino)-N-(2-(pyrrolidin-1-yl)ethyl)benzamide], the 50% inhibitory concentration (IC50) on PDK1 kinase was below 5 µM. The EC50 in the assay with PC-3 cells (setting [1]) was below 5 µM.

Take `O=C(c1ccc(Nc2ncc3c(C(F)(F)F)ccc(OC4CCNCC4)c3n2)cc1)N1CCOCC1` [Compound 501, morpholino(4-(8-(piperidin-4-yloxy)-5-(trifluoromethyl)quinazolin-2-ylamino)phenyl)methanone]: the IC50 on PDK1 kinase was below 5 µM. For the same compound, the EC50 in the assay with PC-3 cells (setting [1]) fell in the range of 5 to 10 µM.

For the compound `FC(F)(F)c1ccc(OC2CCNCC2)c2nc(Nc3ccc(N4CCOCC4)cc3)ncc12` [Compound 502, N-(4-morpholinophenyl)-8-(piperidin-4-yloxy)-5-(trifluoromethyl)quinazolin-2-amine], the concentration for half-maximal inhibition (IC50) on PDK1 kinase was below 5 µM. Also, the EC50 in the assay with PC-3 cells (Cell Proliferation Assay) was below 5 µM.

In the case of `COc1c(NC2CCN(C)CC2)cc(Cl)c2cnc(Nc3ccc(C(=O)N4CCOCC4)cc3)nc12` [Compound 503, (4-(5-chloro-8-methoxy-7-(1-methylpiperidin-4-ylamino)quinazolin-2-ylamino)phenyl)(morpholino)methanone], the IC50 at PDK1 kinase was below 5 µM. In the assay with PC-3 cells (setting [1]), the EC50 fell in the range of 5 to 10 µM.

Regarding `CC(C)N1CCC(Oc2cccc3cnc(N)nc23)CC1` [Compound 523, 8-(1-isopropylpiperidin-4-yloxy)quinazolin-2-amine], the IC50 at PDK1 kinase was in the range of 5 to 10 µM. For the same compound, the EC50 in the assay with PC-3 cells (setting [1]) fell in the range of 5 to 10 µM.

For the compound `Nc1ncc2cccc(O)c2n1` [Compound 524, 2-aminoquinazolin-8-ol], the 50% inhibitory concentration (IC50) on PDK1 kinase was 10 to 25 µM. In addition, the EC50 with PC-3 cells (setting [1]) is below 5 µM.

As to `CC(C)N1CCC(Oc2cccc3cnc(Nc4cccc(NC(=O)N5CCCC5)c4)nc23)CC1` [Compound 525, N-(3-(8-(1-isopropylpiperidin-4-yloxy)quinazolin-2-ylamino)phenyl)pyrrolidine-1-carboxamide], the half-inhibitory concentration (IC50) at PDK1 kinase was below 5 µM. For the same compound, the EC50 in the assay on PC-3 cells (setting [1]) is below 5 µM.

`COc1cc(Nc2ncc3cccc(OC4CCN(C(C)C)CC4)c3n2)cc(OC)c1` [Compound 526, N-(3,5-dimethoxyphenyl)-8-(1-isopropylpiperidin-4-yloxy)quinazolin-2-amine]: at PDK1 kinase, the half-maximal inhibitory concentration (IC50) was below 5 µM. In the assay on PC-3 cells (setting [1]), the EC50 fell in the range of 5 to 10 µM.

`CC(C)N1CCC(Oc2cccc3cnc(Nc4cccc(F)c4)nc23)CC1` [Compound 527, N-(3-fluorophenyl)-8-(1-isopropylpiperidin-4-yloxy)quinazolin-2-amine]: on PDK1 kinase, the IC50 is below 5 µM. Besides, the EC50 in the assay on PC-3 cells (setting [1]) was below 5 µM.

For `CC(C)N1CCC(Oc2cccc3cnc(Nc4cccc(Cl)c4)nc23)CC1` [Compound 528, N-(3-chlorophenyl)-8-(1-isopropylpiperidin-4-yloxy)quinazolin-2-amine], the concentration for half-maximal inhibition (IC50) on PDK1 kinase was below 5 µM. In addition, the EC50 with PC-3 cells (setting [1]) was below 5 µM.

`CC(C)N1CCC(Oc2cccc3cnc(Nc4cccc(C(F)(F)F)c4)nc23)CC1` [Compound 529, 8-(1-isopropylpiperidin-4-yloxy)-N-(3-(trifluoromethyl)phenyl)quinazolin-2-amine]: the concentration for half-maximal inhibition (IC50) at PDK1 kinase was below 5 µM. The EC50 in the assay with PC-3 cells (setting [1]) was below 5 µM.

For `CC(C)N1CCC(Oc2cccc3cnc(Nc4cccc(C#N)c4)nc23)CC1` [Compound 530, 3-(8-(1-isopropylpiperidin-4-yloxy)quinazolin-2-ylamino)benzonitrile], the IC50 on PDK1 kinase was below 5 µM. Moreover, in the assay with PC-3 cells (setting [1]), the EC50 is below 5 µM.

As for `COc1cccc(Nc2ncc3cccc(OC4CCN(C(C)C)CC4)c3n2)c1` [Compound 531, 8-(1-isopropylpiperidin-4-yloxy)-N-(3-methoxyphenyl)quinazolin-2-amine], the IC50 at PDK1 kinase was below 5 µM. The EC50 with PC-3 cells (setting [1]) was 5 to 10 µM.

As for `CC(C)N1CCC(Oc2cccc3cnc(Nc4ccccc4F)nc23)CC1` [Compound 532, N-(2-fluorophenyl)-8-(1-isopropylpiperidin-4-yloxy)quinazolin-2-amine], the IC50 on PDK1 kinase was 5 to 10 µM. The EC50 in the assay with PC-3 cells (setting [1]) was in the range of 5 to 10 µM.

With `CC(C)N1CCC(Oc2cccc3cnc(Nc4cc(F)cc(F)c4)nc23)CC1` [Compound 533, N-(3,5-difluorophenyl)-8-(1-isopropylpiperidin-4-yloxy)quinazolin-2-amine], the IC50 at PDK1 kinase was below 5 µM. For the same compound, in the assay with PC-3 cells (setting [1]), the EC50 was below 5 µM.

In the case of `CC(C)N1CCC(Oc2cccc3cnc(Nc4ccccc4)nc23)CC1` [Compound 534, 8-(1-isopropylpiperidin-4-yloxy)-N-phenylquinazolin-2-amine], on PDK1 kinase, the concentration for half-maximal inhibition (IC50) was below 5 µM. Also, the EC50 in the assay with PC-3 cells (setting [1]) was below 5 µM.

For the compound `COc1ccc(Nc2ncc3cccc(OC4CCN(C(C)C)CC4)c3n2)cc1` [Compound 535, 8-(1-isopropylpiperidin-4-yloxy)-N-(4-methoxyphenyl)quinazolin-2-amine], the IC50 on PDK1 kinase was below 5 µM. Further, in the assay on PC-3 cells (setting [1]), the EC50 was 5 to 10 µM.

In the case of `CC(C)N1CCC(Oc2cccc3cnc(Nc4ccc(C#N)cc4)nc23)CC1` [Compound 536, 4-(8-(1-isopropylpiperidin-4-yloxy)quinazolin-2-ylamino)benzonitrile], the IC50 at PDK1 kinase is below 5 µM. Also, in the assay on PC-3 cells (setting [1]), the EC50 is below 5 µM.

For the compound `CC(C)N1CCC(Oc2cccc3cnc(Nc4ccc(C(=O)N5CCOCC5)cc4)nc23)CC1` [Compound 537, (4-(8-(1-isopropylpiperidin-4-yloxy)quinazolin-2-ylamino)phenyl)(morpholino)methanone], the IC50 at PDK1 kinase was below 5 µM. For the same compound, in the assay with PC-3 cells (setting [1]), the EC50 is 5 to 10 µM.

For the compound `O=C(c1ccc(Nc2ncc3cccc(OC4CCNCC4)c3n2)cc1)N1CCOCC1` [Compound 538, morpholino(4-(8-(piperidin-4-yloxy)quinazolin-2-ylamino)phenyl)methanone], the IC50 at PDK1 kinase was below 5 µM. Further, in the assay on PC-3 cells (setting [1]), the EC50 was below 5 µM.

`CC(=O)N1CCC(Oc2cccc3cnc(Nc4ccc(S(N)(=O)=O)cc4)nc23)CC1` [Compound 539, 4-(8-(1-acetylpiperidin-4-yloxy)quinazolin-2-ylamino)benzenesulfonamide]: the IC50 at PDK1 kinase is below 5 µM. In the assay on PC-3 cells (setting [1]), the EC50 is below 5 µM.

`CS(=O)(=O)N1CCC(Oc2cccc3cnc(Nc4ccc(S(N)(=O)=O)cc4)nc23)CC1` [Compound 540, 4-(8-(1-(methylsulfonyl)piperidin-4-yloxy)quinazolin-2-ylamino)benzenesulfonamide]: the half-maximal inhibitory concentration (IC50) on PDK1 kinase was below 5 µM. In addition, the EC50 in the assay with PC-3 cells (setting [1]) is below 5 µM.

Take `c1cc(Nc2ncc3cccc(OC4CCNCC4)c3n2)cc(N2CCOCC2)c1` [Compound 545, N-(3-morpholinophenyl)-8-(piperidin-4-yloxy)quinazolin-2-amine]: on PDK1 kinase, the IC50 was below 5 µM. In addition, the EC50 in the assay on PC-3 cells (setting [1]) is below 5 µM.

Consider `c1cc(OC2CCNCC2)c2nc(Nc3ccc(N4CCOCC4)cc3)ncc2c1` [Compound 546, N-(4-morpholinophenyl)-8-(piperidin-4-yloxy)quinazolin-2-amine], for which, on PDK1 kinase, the IC50 was below 5 µM. In addition, in the assay with PC-3 cells (setting [1]), the EC50 was below 5 µM.

Consider `COc1ccc(NC(C)=O)cc1Nc1ncc2cccc(OC3CCNCC3)c2n1` [Compound 547, N-(4-methoxy-3-(8-(piperidin-4-yloxy)quinazolin-2-ylamino)phenyl)acetamide], for which the concentration for half-maximal inhibition (IC50) on PDK1 kinase fell in the range of 5 to 10 µM. For the same compound, the EC50 in the assay on PC-3 cells (setting [1]) is 5 to 10 µM.
